Measurements as given in patent publication US12012404B2, “Pyrimidoheterocyclic compounds and application thereof” (D3 BIO (WUXI) CO., LTD., priority 2020, dated 2024).

Experiments:
[1] = In vitro stability in liver microsomes, beagle dogs; type: in vitro ADME; settings: 0.5 mg/mL
Experimental: Purpose of the assay: Metabolic stabilities of the assay compounds in liver microsomes of CD-1 mice, SD rats, beagle dogs, cynomolgus monkeys, and human were assayed, respectively.
Procedure of the assay: Two 96-well incubation plates were prepared and named T60 incubation plate and NCF60 incubation plate, respectively. 445 μL of microsomal working solutions (liver microsomal protein concentration of 0.56 mg/mL) were added to the T60 incubation plate and the NCF60 incubation plate, respectively, and then the above incubation plates were pre-incubated in a 37° C. water bath for about 10 minutes.
After the pre-incubation, 5 μL of working solutions of the assay sample or the control compound were added to the T60 incubation plate and the NCF60 incubation plate, respectively, and the mixture was mixed well. 50 μL of potassium phosphate buffer was added to each well of the NCF60 incubation plate to initiate the reaction. 180 μL of stop solution (200 ng/mL tolbutamide and 200 ng/mL labetalol in acetonitrile) and 6 uL of NADPH regeneration system working solution were added to the T0 stop plate, and 54 μL of sample was transferred from T60 incubation plate to T0 stop plate (generation of TO sample). The reaction was initiated by adding 44 μL of NADPH regeneration system working solution to each well of the T60 incubation plate. Only 54 μL of microsome working solution, 6 uL of NADPH regeneration system working solution and 180 μL of stop solution were added to the Blank plate. Therefore, in samples of the assay compound or the control compound, the final reaction concentration of compound, testosterone, diclofenac and propafenone was 1 μM, the concentration of liver microsomes was 0.5 mg/mL, and the final reaction concentrations of DMSO and acetonitrile in the reaction system were 0.01% (v/v) and 0.99% (v/v), respectively.
After an appropriate time (e.g., 5, 15, 30, 45 and 60 minutes) of incubation, 180 μL of stop solutions (200 ng/mL tolbutamide and 200 ng/mL labetalol in acetonitrile) were added to the sample wells of each stop plate, respectively. 60 μL of sample was removed from the T60 incubation plate to stop the reaction. All sample plates were shaken well and then centrifuged at 3220×g for 20 minutes. Then 80 μL of supernatant was taken out from each well, and diluted in 240 μL of pure water for liquid chromatography-tandem mass spectrometry analysis. All samples were injected and analyzed by liquid chromatography-tandem mass spectrometry.

plasma protein of human = test: Protein binding rate by equilibrium dialysis, human plasma; type: in vitro ADME; settings: 2 μM, dialysis 4 hours
Experimental: (§1) Purpose of the assay: Protein binding rate of the assay compounds in plasma of CD-1 mice, SD rats, beagle dogs, cynomolgus monkeys and human was determined by equilibrium dialysis.
(§2) Procedure of the assay: Plasma samples with a compound concentration of 2 μM were prepared using plasma of the above five species, placed in a 96-well equilibrium dialysis device, and dialyzed with phosphate buffer solution at 37±1° C. for 4 hours. Warfarin was used as the control compound in this assay. The concentrations of the assay compounds in plasma and dialysis buffer were determined by LC-MS/MS method.

[2] = Stability assay in plasma, human; type: in vitro ADME; settings: 2 μM, 37° C.
Experimental: Purpose of the assay: Stabilities of the assay compounds in plasma of CD-1 mice and human were assayed, respectively.
Procedure of the assay: Cryopreserved plasma was thawed for 10-20 min. After the plasma was completely thawed, it was placed in a centrifuge and centrifuged at 3220×g for 5 min to remove any suspended matter and sediment in the plasma. 96-well incubation plates were prepared and named TO, T10, T30, T60, T120, respectively. 98 μL of blank plasmas of mouse, rat, canine, monkey and human were added to the corresponding incubation plates, then 2 μL of working solutions of the compound or the control compound were added to the corresponding plates in duplicate. All samples were incubated in a 37° C. water bath. The final incubation concentrations of the compound and the control compounds bisacodyl, enalapril maleate, procaine and probanthine were 2 μM, and the final organic phase content was 2.0%. At the end of incubation for each time point, the corresponding incubation plate was removed and 400 μL of a solution of 200 ng/mL of tolbutamide and labetalol in acetonitrile was added to each corresponding sample well to precipitate the protein. All sample plates were sealed and shaken well, and then centrifuged at 3220×g for 20 minutes. 50 μL of supernatant was taken out and diluted in 100 μL of ultrapure water. All samples were mixed well and then analyzed by LC/MS/MS.

[3] = Pharmacokinetics by oral administration and intravenous injection in SD rats; type: in vivo; settings: for AUCu: AUC0-last × PPB(Unbound %); for Peak concentration, Cmax, u: Cmax × PPB(Unbound %); for Cmax: read-out: Peak concentration, Cmax; for Vd: SD, iv, 2 mg/kg
Experimental: 1) Assay on the Pharmacokinetics of the Assay Compounds by Oral Administration and Intravenous Injection in SD Rats
The assay compound was mixed with […] (10% hydroxypropyl-β-cyclodextrin) solution. The mixture was vortexed and sonicated to prepare a 1 mg/mL clear solution, which was filtered through a microporous membrane for later use. Male SD rats aged 7 to 10 weeks were selected, and administered candidate compound solutions intravenously or orally. Whole blood was collected for a certain period of time, and prepared to obtain plasma. Drug concentration was analyzed by LC-MS/MS method, and pharmacokinetic parameters were calculated by Phoenix WinNonlin software (Pharsight, USA).

[4] = Pharmacokinetics by oral administration and intravenous injection in CD mice; type: in vivo; settings: for AUCu: AUC0-last × PPB(Unbound %); for Peak concentration, Cmax, u: Cmax × PPB(Unbound %); for Cmax: read-out: Peak concentration, Cmax; for Vd: CD, iv, 2.39 mg/kg
Experimental: 2) Assay on the Pharmacokinetics of the Assay Compounds by Oral Administration and Intravenous Injection in CD Mice
The assay compound was mixed with 5% dimethyl sulfoxide/95% (10% hydroxypropyl-β-cyclodextrin) solution. The mixture was vortexed and sonicated to prepare a 1 mg/mL clear solution, which was filtered through a microporous membrane for later use. Male CD mice aged 7 to 10 weeks were selected, and administered candidate compound solutions intravenously or orally. Whole blood was collected for a certain period of time, and prepared to obtain plasma. Drug concentration was analyzed by LC-MS/MS method, and pharmacokinetic parameters were calculated by Phoenix WinNonlin software (Pharsight, USA).

[5] = tested on: plasma protein of CD-1 mice; test: Protein binding rate by equilibrium dialysis, CD-1 mice plasma; type: in vitro ADME; settings: for Protein unbound rate: CD-1 mice plasma, 2 μM, dialysis 4 hours
Experimental: as §1, §2

[6] = intravenous injection, 2.0 mg/kg
[7] = oral, 9.7 mg/kg (8B), 9.8 mg/kg (17)
[8] = intravenous injection, 2.39 mg/kg (17), 2.0 mg/kg (8B)
[9] = oral, 14.7 mg/kg (17), 10.3 mg/kg (8B)
[10] = male, rat, plasma, oral, 9.7 mg/kg (8B), 9.8 mg/kg (17)
[11] = male, mouse, plasma, oral, 14.7 mg/kg (17), 10.3 mg/kg (8B)

With C=C(F)C(=O)N1CCN(c2nc(OCC3CCCN3C)nc3c2COC(c2c(F)c(N)cc(C)c2C(F)(F)F)C3)CC1CC#N.Cl (single isomer, unassigned) [Compound 8B hydrochloride] the “CLint(liver)” value ([1]; 1 μM) was under 13.8 mL/min/kg, the CLint(mic) ([1]; 1 μM) was under 9.6 µL/min/mg and the T1/2 ([1]; 1 μM) was over 145 min. For the same compound, the Protein unbound rate (plasma protein of human) was 10.6, the “Detection of assay compound content within 120 min” value [2] was 114% and the AUC0-last [3, 6] was 544 nM·h. For the same compound, the “Apparent volume of distribution, Vdss” value [3, 6] was 17.9 L/kg, the “Clearance rate, CL” value [3, 6] was 85.2 mL/min/kg and the “Half-life period, T1/2” value [3, 6] was 2.8 h. The AUCu [3, 6] was 53.3 nM·h, the “Apparent volume of distribution, Vdss, u” value ([3]; intravenous injection, 2.0 mg/kg, Vdss/PPB(Unbound %)) was 203 L/kg and the AUC0-last [3, 7] was 1211 nM·h. For the same compound, the “Bioavailability F” value [3, 7] was 44.5%, the “Time-to-peak, Tmax” value [3, 7] was 1.5 h and the AUCu [3, 7] was 119 nM·h. For the same compound, the “Peak concentration, Cmax, u” value [3, 7] was 21.3 nM, the Cmax [3, 7] was 218 nM and the AUC0-last [4, 8] was 1297 nM·h. For the same compound, the “Apparent volume of distribution, Vdss” value [4, 8] was 3.9 L/kg, the “Clearance rate, CL” value [4, 8] was 40.6 mL/min/kg and the “Half-life period, T1/2” value [4, 8] was 1.7 h. The AUCu [4, 8] was 155.6 nM·h, the “Apparent volume of distribution, Vdss, u” value ([4]; intravenous injection, 2.39 mg/kg (17), 2.0 mg/kg (8B), Vdss/PPB(Unbound %)) was 32.3 L/kg and the AUC0-last [4, 9] was 1422 nM·h. The “Bioavailability F” value [4, 9] was 21.9%, the “Time-to-peak, Tmax” value [4, 9] was 1.0 h and the AUCu [4, 9] was 170.6 nM·h. The “Peak concentration, Cmax, u” value [4, 9] was 51.7 nM, the Cmax [4, 9] was 431 nM and the Protein unbound rate [5] was 12.0. The “Plasma protein unbound rate PPB (Unbound %)” value ([5]; mice, as listed in PK Table 9) was 12.0%.
C=C(F)C(=O)N1CCN(c2nc(OC[C@@]34CCCN3C[C@H](F)C4)nc3c2COC(c2c(F)c(N)cc(C)c2C(F)(F)F)C3)C[C@@H]1CC#N (stereo partly shown) [Compound 17] showed a CLint(mic) ([1]; 1 μM) of under 9.6 µL/min/mg, a CLint scaled at 1 μM ([1]; dog) of under 13.8 mL/min/kg and a half-life at 1 μM ([1]; dog) of over 145 min. The Protein unbound rate (plasma protein of human) was 4.8, the “Detection of assay compound content within 120 min” value [2] was 93% and the AUCu [3, 6] was 31.3 nM·h. The Vd ([3]; male, rat, plasma, intravenous injection, 2.0 mg/kg, Vdss/PPB(Unbound %), read-out: Apparent volume of distribution, Vdss, u) was 221 L/kg, the Vd ([3]; male, rat, plasma, intravenous injection, 2.0 mg/kg, read-out: Apparent volume of distribution, Vdss) was 10.6 L/kg and the AUC(0-t) ([3]; male, rat, plasma, intravenous injection, 2.0 mg/kg) was 0.653 µM·h. The clearance ([3]; male, rat, plasma, intravenous injection, 2.0 mg/kg, read-out: Clearance rate, CL) was 71.5 mL/min/kg, the half-life ([3]; male, rat, plasma, intravenous injection, 2.0 mg/kg, read-out: Half-life period, T1/2 (converted)) was 114 min and the AUC(0-t) [3, 10] was 0.995 µM·h. It also gave a bioavailability ([3]; male, rat, plasma, oral, 9.7 mg/kg (8B), 9.8 mg/kg (17), read-out: Bioavailability F) of 30.5%, a Cmax [3, 10] of 220 nM and a Tmax ([3]; male, rat, plasma, oral, 9.7 mg/kg (8B), 9.8 mg/kg (17), read-out: Time-to-peak, Tmax) of 1.5 h. For the same compound, the AUCu [3, 7] was 47.8 nM·h, the “Peak concentration, Cmax, u” value [3, 7] was 10.6 nM and the AUCu [4, 8] was 20.2 nM·h. It also gave a Vd ([4]; male, mouse, plasma, intravenous injection, 2.39 mg/kg (17), 2.0 mg/kg (8B), Vdss/PPB(Unbound %), read-out: Apparent volume of distribution, Vdss, u) of 169 L/kg, a Vd ([4]; male, mouse, plasma, intravenous injection, 2.39 mg/kg (17), 2.0 mg/kg (8B), read-out: Apparent volume of distribution, Vdss) of 2.6 L/kg and an AUC(0-t) ([4]; male, mouse, plasma, intravenous injection, 2.39 mg/kg (17), 2.0 mg/kg (8B)) of 1.31 µM·h. For the same compound, the clearance ([4]; male, mouse, plasma, intravenous injection, 2.39 mg/kg (17), 2.0 mg/kg (8B), read-out: Clearance rate, CL) was 37.3 mL/min/kg, the half-life ([4]; male, mouse, plasma, intravenous injection, 2.39 mg/kg (17), 2.0 mg/kg (8B), read-out: Half-life period, T1/2 (converted)) was 60 min and the AUC(0-t) [4, 11] was 2.4 µM·h. It also gave a bioavailability ([4]; male, mouse, plasma, oral, 14.7 mg/kg (17), 10.3 mg/kg (8B), read-out: Bioavailability F) of 24.4%, a Cmax [4, 11] of 1460 nM and a Tmax ([4]; male, mouse, plasma, oral, 14.7 mg/kg (17), 10.3 mg/kg (8B), read-out: Time-to-peak, Tmax) of 15 min. The AUCu [4, 9] was 37.0 nM·h, the “Peak concentration, Cmax, u” value [4, 9] was 22.5 nM and the Protein unbound rate [5] was 1.5.
